The values that follow come from patent US20260183393A1, “IMMUNOSUPPRESSANT-RESISTANT MODIFIED ALLOGENEIC MODIFIED IMMUNE CELLS AND METHODS FOR USE THEREOF” (Beam Therapeutics Inc., priority 2023, published 2026).

One test deals with CD19^+ B cells. The test can be described thus: B cell aplasia and 19CAR-T cell persistence in HIS mice. As to conditions: TAC 10 mg kg^−1 daily; 10 days post-T cell infusion. In kind it is in vivo, huCD34-NCG mice. The text has this: FIGS. 19B and 19C provide a bar graph of cell concentration (FIG. 19B) and flow cytometry contour plots (FIG. 19C) for peripheral CD19^+ B cells 6 days post-T cell infusion from mice in Groups 1-4. FIGS. 19D and 19E provide bar graphs showing total CD19^+ B cells from individual mouse splenic (FIG. 19D) and bone marrow (FIG. 19E) tissue 10 days post-T cell infusion in Groups 1-4. FIG. 19F provides a bar graph showing geometric median fluorescent intensity (MFI) of CD19 expression on residual peripheral CD22^+ B cells 6 days post-T cell infusion from mice in Groups 1-4. FIG. 19G provides a bar graph showing concentration of peripheral CD22^+CD19^dim B cells 6 days post-T cell infusion from mice in Groups 1-4. […] Statistical significance was calculated by Wilcoxon rank sum test (FIGS. 19B, 19D, and 19E) and Kruskall-Wallace test with Dunn's test for multiple comparisons (FIGS. 19F, 19G, 19I, and 19J).
For the studies described in FIGS. 19A to 19J, huCD34-NCG mice were used in Cohort #6 (n=16), Cohort #7 (n=12), Cohort #8 (n=24), and Cohort #9 (n=12) and were evenly distributed into 4 groups via matched distribution based on degree of human T cell engraftment using StudyLog. […] Endogenous B cell aplasia and persistence of 19CAR-T cells was monitored at 7- and 11-days post-drug treatment via blood draw from the submandibular vein and tissue collection at necropsy.

The test system of another test is alloreactive T cells. The test can be described thus: Mixed leukocyte reaction: priming and proliferation of alloreactive T cells with immunosuppressants. The test is classed as cell-based, human. As to conditions: for proliferation of alloreactive T cells: CellTrace Violet-labeled T cells with PBMCs from HLA disparate donors, RPM 10^−2 to 10^−4 mg mL^−1, TAC 10^0 to 10^−2 mg mL^−1, relative to VEH; for proliferation of the T cells: rapamycin 0.001 μg/mL or tacrolimus 0.1 μg/mL, HLA-mismatched PBMCs 1:1, day 7, CellTrace dilution. Here is the method: Purified primary human T cells (effector cells) from a donor (Donor #1) were labeled with CellTrace™ dye and co-cultured at a 1:1 effector-to-target cell ratio with HLA-mismatched peripheral blood mononuclear cells (PBMCs) from another donor (Donor #2) that were pretreated with mitomycin C to inhibit their growth (mitomycin C inhibits cell growth). The cells were co-cultured in the presence of the immunosuppressant rapamycin (0.001 μg/mL) or tacrolimus (0.1 μg/mL) or in the presence of dimethylsulfoxide (DMSO) in place of any immunosuppressant. The immunosuppressant or DMSO was re-administered to the cultures every 48 hours. On day 7, proliferation was measured as dilution of the CellTrace™ dye assessed using flow cytometry. The numbers at the lower-left of each plot indicate the percent of total cells counted falling within the indicated region.
First, human leukocyte antigen (HLA) mismatched peripheral blood mononuclear cells (PBMCs) from a donor were co-cultured in the presence and absence of an immunosuppressant agents with T cells from a different donor that were labeled using a CellTrace dye for measuring cell proliferation. The peripheral blood mononuclear cells (PBMC) cells were treated with mitomycin C prior to being co-cultured to prevent proliferation of the PBMC cells.
It was first determined if immunosuppressants mitigate the in vitro priming of alloreactive T cells. To do so, peripheral blood mononuclear cells and CellTrace Violet-labeled T cells from HLA disparate donors were cultured in the presence of rapamycin (RPM), tacrolimus (TAC) or vehicle (VEH) control. […] Next, it was tested whether immunosuppressants alleviated in vivo T cell-driven rejection of allogeneic HLA-I CAR-T cells. Five cohorts of human immune system (HIS) mice derived from unrelated human donors were injected daily with RPM, TAC, or VEH for 2 weeks, and at 1-day post-treatment initiation all mice were co-infused with an equal amount of allogeneic HLA^+ and HLA-deficient CAR-T cells (FIG. 16A). Cohorts #3 and #4 also received syngeneic human immune system (HIS) mouse-derived CAR-T cells to control for autologous T cell persistence. […]
For the study described in FIGS. 21A to 21C, CellTrace Violet (Thermo Fisher Scientific) CD3^+ T cells (effectors) and CD3-depleted PBMCs (targets) from HLA disparate donors were cultured in triplicate at a 1:1 ratio in complete medium supplemented with 300 U mL^−1 IL-2. […] Frequency of dividing effector CD8^+ and CD4^+ T cells was measured at day 5 and 7 post-stimulation by flow cytometry.

A further test concerns JeKo-1. Put plainly: Cell growth kinetics with rapamycin, JeKo-1. In kind it is cell-based, human. As to conditions: RPM at different concentrations. Here is the method:
(§1) FIGS. 26A to 26E provide histograms and plots showing malignant B cell lines were sensitive to Rapamycin treatment in vitro. FIG. 26A provides histograms showing geometric median fluorescent intensity (MFI) of phosphorylated mTOR (pS2448), S6 (pS235/[…]) and 4EBP1 (pT36/T45) in JeKo-1, Raji and Nalm6 cell lines, as well as primary human monocytes and bulk lymphocytes. FIGS. 26B to 26D relate to an experiment where JeKo-1, Raji and Nalm6 cells were treated with DMSO or Rapamycin (RPM) and then analyzed for phosphorylation level of mTOR (FIG. 26B), S6 (FIG. 26C) and 4EBP1 (FIG. 26D). FIG. 26E provides plots showing JeKo-1, Raji and Nalm6 cell growth kinetics after treatment with DMSO or RPM at different concentrations. Symbols indicate mean and error bars show ±s.e.m.

The subject of a further test is Raji. Put plainly: Cell growth kinetics with rapamycin, Raji. The test is classed as cell-based, human. The conditions noted are these: RPM at different concentrations. Here is the method:
as §1

Turning to `C=CC[C@@H]1/C=C(\C)C[C@H](C)C[C@H](OC)[C@H]2O[C@@](O)(C(=O)C(=O)N3CCCC[C@H]3C(=O)O[C@H](/C(C)=C/[C@@H]3CC[C@@H](O)[C@H](OC)C3)[C@H](C)[C@@H](O)CC1=O)[C@H](C)C[C@@H]2OC` [tacrolimus, Tacrolimus], the “allorejection of HLA-I^+ 19CAR-T cells in peripheral blood and spleen” value in the test on CD19^+ B cells is reported as “protected HLA-I^+ 19CAR-T cells”. Besides, in the test on alloreactive T cells, the “proliferation of alloreactive T cells” value is on record as “severely attenuated the proliferation of alloreactive T cells” and the “proliferation of the T cells” value is “hindered proliferation of the T cells”.
Consider `CO[C@H]1C[C@@H]2CC[C@@H](C)[C@@](O)(O2)C(=O)C(=O)N2CCCC[C@H]2C(=O)O[C@H]([C@H](C)C[C@@H]2CC[C@@H](O)[C@H](OC)C2)CC(=O)[C@H](C)/C=C(\C)[C@@H](O)[C@@H](OC)C(=O)[C@H](C)C[C@H](C)/C=C/C=C/C=C/1C` [rapamycin, Rapamycin], for which the in vitro proliferation result with JeKo-1 was “inhibited in vitro proliferation”. Besides, in the test with alloreactive T cells, the “proliferation of alloreactive T cells” value is given as “severely attenuated the proliferation of alloreactive T cells” and the “proliferation of the T cells” value is “hindered proliferation of the T cells”. In the test with Raji, the in vitro proliferation result is reported as “inhibited in vitro proliferation”.
